Measured values reported in patent US20030114434A1, “EXTENDED DURATION LIGHT ACTIVATED CANCER THERAPY” (priority 1999, published 2003).
Where “and” joins values, the source holds several entries; their conditions need not be identical. Identical values can stand only once.

Key:
[1] = system: transplanted human tumors; experiment: Nude mice with established transplanted human tumors, photosensitizer injected, low fluence light 72 hours; format: in vivo; details: for tumor necrosis: 660 nm light 72 hours, 30 microwatts per cm^2, after 7 days, two mice
Description: (§1) A series of experiments were performed using nude mice growing transplanted human tumors. The mice are injected with various photosensitizers and the tumors illuminated with low fluence of only 30 uW of light over a 72 hour time period. Extended tumor necrosis was observed.
(§2) All control nude mice were injected with the PDT drug (intratumor or intraperitoneal) and 5 million human carcinoma cells which developed a tumor mass. These mice were kept in a darkened environment.
(§3) Another two mice with established tumors were injected with 50-100 micrograms of Pheophorbide A into the lesion and exposed to 660 nm light (30 microwatts per cm^2) for 72 hours.
(§4) Two experimental mice were injected with epithelial cancer cells preincubated with 20 micrograms of Chlorin e6. […] Another two mice were injected with 100-150 micrograms of Chlorin e6 intratumorally and then exposed to 660 nm light (30 microwatts per cm^2) for 72 hours.
Five experimental mice bearing established tumors were injected with 1 mg Hpd intraperitoneally followed by exposure to 630 nm (peak) light (30 microwatts per cm^2) for 72 hours. […] There was no effect observed on control animals maintained in the absence of light (dark control mice).

epithelial cancer cells = experiment: Nude mice injected with epithelial cancer cells preincubated with photosensitizer, low fluence light; format: in vivo; details: for tumor growth: 660 nm light 48 hours, two mice
Description: as §1, §2, §3, §4

[2] = systemic clinical use; cited from earlier work
[3] = cited from earlier work
[4] = system: colon carcinoma tumor mass; experiment: Extended duration PDT of a colon carcinoma tumor mass in a patient, implanted LED probes; format: in vivo, human
From the text: A patient in the terminal phase of recurrent malignant colon cancer having undergone chemotherapy and irradiation therapy, presented with a protruding colon carcinoma tumor mass of approximately 500 grams and approximately 13 cm in diameter, which extended through the patient's dermis. Due to the advanced state of the patient's disease and due to the highly vascularized nature of this tumor mass, resection was not feasible. Further, this large tumor mass presented a significant amount of pain and discomfort to the patient, as well as greatly impairing the patient's ability to lie flat.
Six separate light source probes, each including a linear array of LEDs, were surgically implanted in this large human tumor using standard surgical procedures. A single dose of a photosensitizer agent (aminolevulinic acid (ALA) at 60 mg/kg) was provided by oral administration to the patient. Following a period of five hours to permit sufficient clearance of the photosensitizing agent from healthy tissues, light irradiation was administered. An intensity of about 25-30 mW of light from each light source probe (650 nm peak wavelength) was delivered to the tumor for 40 hours. […] The total fluence delivered to the tumor bed during this single extended duration treatment was in excess of 20,000 Joules.
The fluence rate employed in this Example represented about 150-180 mW/cm^2, with a total fluence more than 20,000 Joules.

Pheophorbide A
tumor necrosis ([1]; 50-100 micrograms into the lesion): Extensive tumor necrosis
effect on tumor, dark control ([1]; Pheophorbide A experiment, absence of light): no effect
tumor growth, dark control (epithelial cancer cells; Pheophorbide A experiment, maintained in the absence of light): developed a large tumor
tumor growth (epithelial cancer cells; cells preincubated with 10 micrograms, 30 microwatts per cm2, after 1.5 months): no tumor growth

sodium porfimer [PHOTOFRIN]
duration of dermal photosensitivity [2]: up to six weeks

C=Cc1c(C)c2cc3nc(c(CC(=O)O)c4[nH]c(cc5nc(cc1[nH]2)C(C)=C5CC)c(C)c4C(=O)O)[C@@H](CCC(=O)O)[C@@H]3C [Chlorin e6]
tumor necrosis ([1]; 100-150 micrograms intratumorally): Extensive tumor necrosis
tumor growth, dark control (epithelial cancer cells; Chlorin e6 experiment, absence of light): developed a large tumor
tumor growth (epithelial cancer cells; cells preincubated with 20 micrograms, 30 microwatts per cm^2, after 1.5 months): no tumor growth

CC(=O)[O-].CC(=O)[O-].CCc1c(CC)c2cc3nc(cnc4cc(OCCOCCOCCOC)c(OCCOCCOCCOC)cc4ncc4nc(cc1[n-]2)C(CCCO)=C4C)C(C)=C3CCCO.O.[Lu+3] [Lutrin, lutetium texaphyrin]
time for clearance from normal tissues (predominant amount) ([3]; from administration): about 24 hours
time tumor tissue retains the agent ([3]; from time of administration): 48 to 96 h and 24 to 96 h
time at which a larger proportion clears from normal tissue ([3]; in vivo): about 8 hours
time at which a proportion begins to clear from normal tissue ([3]; in vivo): about 3 hours
time at which an even greater proportion clears from normal tissue ([3]; in vivo): about 16 hours

NCC(=O)CCC(=O)O [ALA, aminolevulinic acid]
collateral damage to surrounding normal tissue ([4]; ALA 60 mg/kg oral, after 40 hours of PDT): no collateral damage
radius of extensive tumor necrosis from each light source probe ([4]; ALA 60 mg/kg oral, light from 5 hours after dose, 650 nm, 40 hours of PDT, total fluence >20,000 Joules): greater than 5 cm
reduction of tumor tissue (necrotic tissue debrided) ([4]; over four weeks following PDT): approximately 500 grams

Oc1cccc(-c2c3nc(c(-c4cccc(O)c4)c4ccc([nH]4)c(-c4cccc(O)c4)c4nc(c(-c5cccc(O)c5)c5ccc2[nH]5)CC4)C=C3)c1 [FOSCAN]
duration of dermal photosensitivity [2]: at least several weeks

CCOC(=O)C1=Cc2c3nc(cc4nc(cc5[n-]c(cc6[n-]c2c(C)c6CC)c(C)c5CC)C(C)=C4CC)[C@@H](C)[C@]13CC.[Cl-].[Cl-].[Sn] (racemic) [PURLYTIN]
duration of dermal photosensitivity [2]: at least several weeks
